Active and inactive are the calls of the source.
What was measured:
[1] = NIH-3T3 fibroblast cytotoxicity, dose response, cytotoxicity control, cell-based, fluorescence, Alamar Blue, secondary assay (AID 2327); type: functional;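 note: NIH-3T3 mouse fibroblasts cultured with fluconazole at 8 µg/mL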
[2] = molecular target: Heat shock protein HSP 90-alpha (Homo sapiens, UniProt P07900); type: functional, organism-based
[3] = molecular target: T1, Apoptotic protease-activating factor 1 (Homo sapiens, UniProt O14727); type: functional
T1 sequence (O14727 whole entry): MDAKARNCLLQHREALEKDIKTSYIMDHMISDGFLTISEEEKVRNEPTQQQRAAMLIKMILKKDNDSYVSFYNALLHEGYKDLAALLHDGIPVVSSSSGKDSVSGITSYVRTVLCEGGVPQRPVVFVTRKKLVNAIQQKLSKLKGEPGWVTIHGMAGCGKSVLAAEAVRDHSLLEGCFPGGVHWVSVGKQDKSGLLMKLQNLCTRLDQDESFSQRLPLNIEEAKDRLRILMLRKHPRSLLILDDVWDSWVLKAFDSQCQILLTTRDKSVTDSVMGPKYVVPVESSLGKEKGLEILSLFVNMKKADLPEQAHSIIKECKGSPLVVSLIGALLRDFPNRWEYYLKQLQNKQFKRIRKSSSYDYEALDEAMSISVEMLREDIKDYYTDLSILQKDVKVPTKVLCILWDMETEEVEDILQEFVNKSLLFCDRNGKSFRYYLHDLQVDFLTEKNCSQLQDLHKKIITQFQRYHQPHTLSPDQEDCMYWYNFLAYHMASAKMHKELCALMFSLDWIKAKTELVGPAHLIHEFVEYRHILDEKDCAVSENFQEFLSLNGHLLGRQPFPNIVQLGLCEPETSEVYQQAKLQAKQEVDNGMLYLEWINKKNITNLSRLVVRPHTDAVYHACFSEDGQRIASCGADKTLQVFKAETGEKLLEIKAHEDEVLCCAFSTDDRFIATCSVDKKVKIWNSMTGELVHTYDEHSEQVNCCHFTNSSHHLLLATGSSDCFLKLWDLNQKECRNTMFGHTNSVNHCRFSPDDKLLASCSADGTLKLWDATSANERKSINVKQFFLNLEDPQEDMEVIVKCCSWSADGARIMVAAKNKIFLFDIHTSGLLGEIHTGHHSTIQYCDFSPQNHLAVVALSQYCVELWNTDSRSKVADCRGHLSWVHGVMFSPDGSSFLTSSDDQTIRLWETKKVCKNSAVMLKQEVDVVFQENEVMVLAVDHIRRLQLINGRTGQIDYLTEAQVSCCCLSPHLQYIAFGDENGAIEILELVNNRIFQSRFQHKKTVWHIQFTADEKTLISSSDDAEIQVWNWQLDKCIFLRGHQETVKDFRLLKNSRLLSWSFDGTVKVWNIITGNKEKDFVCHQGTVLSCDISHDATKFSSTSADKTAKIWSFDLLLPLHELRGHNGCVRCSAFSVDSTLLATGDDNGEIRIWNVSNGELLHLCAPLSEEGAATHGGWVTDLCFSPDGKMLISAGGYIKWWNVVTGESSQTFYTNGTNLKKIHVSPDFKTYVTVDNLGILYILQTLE

INS1 = assay: beta cell apoptosis inhibitors, cytokine rescue, dose response, luminescence, retest (AID 449756); type: functional, cell-based; conditions: Rattus norvegicus;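 note: cell death triggered by IL-1 beta plus TNF-alpha plus IFN-gamma mixture; protective hits raise ATP signal compared with cytokine alone wells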
[4] = C. albicans growth with fluconazole, confirmation, fluorescence, retest (AID 2467); type: functional, cell-based
Protein RecA = molecular target: T2, Protein RecA (Mycobacterium tuberculosis, UniProt P9WHJ3); assay: Fluorescence Cell-Free Homogeneous Dose Retest to Identify Inhibitors of RecA-Intein Splicing Activity. [Related pubchem assays (depositor defined):AID2097, AID2223, AID489010, AID492950]; type: functional
T2 sequence (P9WHJ3 whole entry): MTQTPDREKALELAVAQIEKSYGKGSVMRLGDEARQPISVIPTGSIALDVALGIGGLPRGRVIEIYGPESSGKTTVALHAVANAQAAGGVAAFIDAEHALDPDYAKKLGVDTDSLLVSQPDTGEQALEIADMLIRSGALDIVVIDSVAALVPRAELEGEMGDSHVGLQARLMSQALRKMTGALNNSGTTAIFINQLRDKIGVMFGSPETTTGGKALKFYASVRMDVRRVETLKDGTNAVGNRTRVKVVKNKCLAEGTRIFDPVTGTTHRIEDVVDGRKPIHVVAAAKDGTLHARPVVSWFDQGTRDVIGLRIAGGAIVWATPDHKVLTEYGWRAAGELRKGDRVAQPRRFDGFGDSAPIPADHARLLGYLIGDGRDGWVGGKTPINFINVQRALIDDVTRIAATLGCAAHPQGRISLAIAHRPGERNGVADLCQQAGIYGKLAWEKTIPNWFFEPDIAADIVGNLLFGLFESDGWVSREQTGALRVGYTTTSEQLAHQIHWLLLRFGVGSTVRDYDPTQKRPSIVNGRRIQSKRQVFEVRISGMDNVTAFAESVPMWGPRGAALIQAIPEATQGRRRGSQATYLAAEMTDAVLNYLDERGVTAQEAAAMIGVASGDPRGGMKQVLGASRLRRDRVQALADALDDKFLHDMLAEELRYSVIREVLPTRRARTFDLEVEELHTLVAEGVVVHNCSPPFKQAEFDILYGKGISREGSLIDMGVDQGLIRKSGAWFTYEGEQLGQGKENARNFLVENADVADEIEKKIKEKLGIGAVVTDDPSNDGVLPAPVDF

CCCCCCCCCCCCCCCC[N+](C)(C)C
EC50 [1]: > 150 µM (inconclusive) | AC50 [2]: 8.33 µM (active) | IC50 [3]: 27.5 µM (active) | AC50 (INS1): 4.84 µM (active) | EC50 [4]: > 38 µM (not active) | EC50 (Protein RecA): 14.7 µM (active)

CC(C)CC(=O)NC(c1cccs1)c1ccc2cccnc2c1O (stereo not given)
EC50 [1]: 24.3 µM (active) | AC50 [2]: 3.78 µM (active) | AC50 (INS1): 0.862 µM (active) | EC50 [4]: 0.58 µM (active)

Cc1ccccc1-c1cc2c(nn1)-c1ccccc1C2=O
IC50 [3]: 25.5 µM (active) | EC50 (Protein RecA): 0.891 µM (active)

CCOC(=O)c1ccc(NC2=CC(=O)C(=O)c3ccccc32)cc1
IC50 [3]: 4.73 µM (active) | EC50 (Protein RecA): 3.24 µM (active)

OC(CNCCC1C=Nc2ccccc21)Cn1c2ccc(Cl)cc2c2cc(Cl)ccc21 (stereo not given)
EC50 [1]: 14.3 µM (inconclusive) | AC50 [2]: 8.15 µM (active) | AC50 (INS1): 7.32 µM (active) | EC50 [4]: > 38 µM (not active) | EC50 (Protein RecA): 9.52 µM (active)

COc1ccc(C(=O)c2nccc3cc(OC)c(OC)cc23)cc1OC
IC50 [3]: 24.4 µM (active)

Source: ChEMBL document CHEMBL1201862, “PubChem BioAssay data set” (2004)
